Blank lines part the entries; values can stand above or below the molecule they belong to. Active and inactive are the calls of the source. The calls are words filed in the database; no cut-off is given here.
Tests used:
[1] = Chemical stability of the compound at 10 uM at pH 7.4 after 1 hr by LC-MS/MS analysis; assay type: physicochemical; conditions: buffer; for Stability: pH 7.4, 1 h, 10 µM; for remaining at 1 h, 10 µM: pH 7.4, read-out: Stability
[2] = Metabolic stability in monkey plasma assessed as compound remaining at 10 uM at 60 mins by LC-MS/MS analysis; assay type: ADME, cell-free, Macaca mulatta; conditions: rhesus monkey, read-out: Stability
[3] = Metabolic stability in human plasma assessed as compound remaining at 10 uM at 60 mins by LC-MS/MS analysis; assay type: ADME, cell-free; conditions: read-out: Stability
[4] = Metabolic stability in mouse plasma assessed as compound remaining at 10 uM at 60 mins by LC-MS/MS analysis; assay type: ADME, cell-free; conditions: read-out: Stability
[5] = AUC (0 to t) in pig-tail monkey plasma assessed as 6-Diazo-5-oxo-L-norleucine levels at 3.6 mg/kg, iv measured at 0.25 to 6 hrs post dose by LC-MS analysis; assay type: ADME, organism-based; design: time upper 6 hr, dose 3.6 mg/kg, time lower 0.25 hr, route intravenous; conditions: macaca nemestrina, in vivo
[6] = Cmax in C57BL/6 mouse plasma assessed as 6-Diazo-5-oxo-L-norleucine levels at 1.8 mg/kg administered via oral gavage by LC-MS analysis; assay type: ADME, organism-based; design: dose 1.8 mg/kg, route oral; conditions: in vivo
[7] = AUC (0 to t) in C57BL/6 mouse plasma assessed as 6-Diazo-5-oxo-L-norleucine levels at 1.8 mg/kg administered via oral gavage measured at 10 to 90 mins post dose by LC-MS analysis; assay type: ADME, organism-based; conditions: in vivo
[8] = AUC (0 to t) in C57BL/6 mouse brain assessed as 6-Diazo-5-oxo-L-norleucine levels at 1.8 mg/kg administered via oral gavage measured at 10 to 90 mins post dose by LC-MS analysis; assay type: ADME, organism-based; conditions: in vivo
[9] = Cmax in pig-tail monkey plasma assessed as 6-Diazo-5-oxo-L-norleucine levels at 3.6 mg/kg, iv by LC-MS analysis; assay type: ADME, organism-based; design: dose 3.6 mg/kg, route intravenous; conditions: macaca nemestrina, in vivo
[10] = Ratio of drug level in C57BL/6 mouse brain to plasma assessed as 6-Diazo-5-oxo-L-norleucine levels at 1.8 mg/kg administered via oral gavage; assay type: ADME, organism-based
[11] = Tmax in C57BL/6 mouse plasma assessed as 6-Diazo-5-oxo-L-norleucine levels at 1.8 mg/kg administered via oral gavage by LC-MS analysis; assay type: ADME, organism-based; conditions: in vivo
[12] = Tmax in pig-tail monkey plasma assessed as 6-Diazo-5-oxo-L-norleucine levels at 3.6 mg/kg, iv by LC-MS analysis; assay type: ADME, organism-based; conditions: macaca nemestrina, in vivo
[13] = Cmax in C57BL/6 mouse brain assessed as 6-Diazo-5-oxo-L-norleucine levels at 1.8 mg/kg administered via oral gavage by LC-MS analysis; assay type: ADME, organism-based; design: dose 1.8 mg/kg, route oral; conditions: in vivo
[14] = Prodrug activation in pig-tail monkey CSF assessed as 6-Diazo-5-oxo-L-norleucine levels at 3.6 mg/kg, iv measured at 30 mins post dose by LC-MS analysis; assay type: organism-based, Cerebrospinal fluid; conditions: macaca nemestrina, in vivo, 0.5 h
[15] = Cmax in C57BL/6 mouse plasma at 0.8 mg/kg administered via oral gavage by LC-MS analysis; assay type: ADME, organism-based; design: dose 0.8 mg/kg, route oral
[16] = Cmax in pig-tail monkey plasma at 1.6 mg/kg, iv by LC-MS analysis; assay type: ADME, organism-based; design: dose 1.6 mg/kg, route intravenous; conditions: macaca nemestrina
[17] = tested on: Mus musculus; experiment: Toxicity in RHFoxn1nu mouse xenografted with human U87 cells assessed as weight loss at 0.8 mg/kg, ip qd for 6 days; assay type: organism-based, U-87MG ATCC; conditions: in vivo, 144 h
[18] = Antitumor activity against human U87 cells xenografted in RHFoxn1nu mouse assessed as tumor volume at 0.8 mg/kg, ip qd for 6 days measured immediately post dose (reference value: 409 mm3); assay type: functional, U-87MG ATCC
[19] = tested on: Mus musculus; experiment: In vivo inhibition of glutamine metabolism in RHFoxn1nu mouse xenografted with human U87 cells assessed as accumulation of endogenous glutamine in tumor at 0.8 mg/kg, ip administered as single dose measured after 2 hrs by HPLC-MS analysis; assay type: functional, organism-based; conditions: U-87MG ATCC
[20] = in vivo; conditions: C57BL/6, mouse, plasma, po, 0.8 mg/kg
Description: AUC (0 to t) in C57BL/6 mouse plasma at 0.8 mg/kg administered via oral gavage measured at 10 to 90 mins post dose by LC-MS analysis

[21] = tested on: Mus musculus; experiment: Toxicity in RHFoxn1nu mouse xenografted with human U87 cells assessed as hunching at 0.8 mg/kg, ip qd for 6 days; assay type: organism-based, U-87MG ATCC; conditions: in vivo, 144 h
[22] = tested on: Mus musculus; experiment: Toxicity in RHFoxn1nu mouse xenografted with human U87 cells assessed as lethargy at 0.8 mg/kg, ip qd for 6 days; assay type: organism-based, U-87MG ATCC; conditions: in vivo, 144 h
[23] = Drug uptake in pig-tail monkey CSF at 1.6 mg/kg, iv measured at 30 mins post dose by LC-MS analysis; assay type: ADME, organism-based, Cerebrospinal fluid; conditions: macaca nemestrina, in vivo, 0.5 h
[24] = Antitumor activity against human U87 cells xenografted in RHFoxn1nu mouse assessed as tumor volume at 0.8 mg/kg, ip qd for 6 days measured on day 2 post dose (reference value: 401 mm3); assay type: functional, U-87MG ATCC
[25] = tested on: Mus musculus; experiment: Toxicity in RHFoxn1nu mouse xenografted with human U87 cells assessed as ptosis at 0.8 mg/kg, ip qd for 6 days; assay type: organism-based, U-87MG ATCC; conditions: in vivo, 144 h
[26] = Antitumor activity against human U87 cells xenografted in RHFoxn1nu mouse assessed as reduction in tumor volume at 0.8 mg/kg, ip qd for 6 days measured 2 to 6 days post dose; assay type: functional, U-87MG ATCC; conditions: U-87 MG
[27] = in vivo; conditions: macaca nemestrina, plasma, iv, 1.6 mg/kg
Description: AUC (0 to t) in pig-tail monkey plasma at 1.6 mg/kg, iv measured at 0.25 to 6 hrs post dose by LC-MS analysis

[28] = Antitumor activity against human U87 cells xenografted in RHFoxn1nu mouse assessed as tumor volume at 0.8 mg/kg, ip qd for 6 days measured on day 4 post dose (reference value: 454 mm3); assay type: functional, U-87MG ATCC
[29] = Tmax in C57BL/6 mouse plasma at 0.8 mg/kg administered via oral gavage by LC-MS analysis; assay type: ADME, organism-based
[30] = Antitumor activity against human U87 cells xenografted in RHFoxn1nu mouse assessed as tumor volume at 0.8 mg/kg, ip qd for 6 days measured on day 6 post dose (reference value: 533 mm3); assay type: functional, U-87MG ATCC
[31] = Ratio of drug level in C57BL/6 mouse brain to plasma at 0.8 mg/kg administered via oral gavage; assay type: ADME, organism-based; conditions: read-out: BPR
[32] = Cmax in C57BL/6 mouse brain at 0.8 mg/kg administered via oral gavage by LC-MS analysis; assay type: ADME, organism-based; design: dose 0.8 mg/kg, route oral; conditions: in vivo

- Stability [1]: Unstable
Compound: CC(C)OC(=O)[C@@H](N)CCC(=O)C=[N+]=[N-]

Compound: CCOC(=O)[C@@H](N)CCC(=O)C=[N+]=[N-]
- Stability [1]: Unstable

- remaining at 1 h, 10 µM [2]: 0%
- remaining at 1 h, 10 µM [1]: > 90%
- remaining at 1 h, 10 µM [3]: 0%
- remaining at 1 h, 10 µM [4]: 0%
Compound: CCOC(=O)[C@H](CCC(=O)C=[N+]=[N-])NC(=O)OCc1oc(=O)oc1C

- remaining at 1 h, 10 µM [2]: 1%
- remaining at 1 h, 10 µM [1]: > 90%
- remaining at 1 h, 10 µM [3]: 1%
- remaining at 1 h, 10 µM [4]: 0%
Compound: CC(C)C[C@H](N)C(=O)N[C@@H](CCC(=O)C=[N+]=[N-])C(=O)OC(C)C

- remaining at 1 h, 10 µM [2]: 0%
- remaining at 1 h, 10 µM [1]: > 90%
- remaining at 1 h, 10 µM [3]: 9%
- remaining at 1 h, 10 µM [4]: 0%
Compound: CC(C)OC(=O)[C@H](CCC(=O)C=[N+]=[N-])NC(=O)OCOC(=O)C(C)(C)C

- AUCt [5]: 5.71 µM·h
- Cmax [6]: 1500 nM
- AUCt [7]: 1.22 µM·h
- remaining at 1 h, 10 µM [2]: 61%
- AUCt [8]: 0.69 nmol·h/g
- remaining at 1 h, 10 µM [1]: > 90%
- Cmax [9]: 2230 nM
- BPR [10]: 0.57
- Tmax [11]: 90 min
- remaining at 1 h, 10 µM [3]: 91%
- Tmax [12]: 15 min
- Cmax [13]: 0.64 nmol/g
- remaining at 1 h, 10 µM [4]: 0%
- Drug metabolism [14]: 1.43 nmol/g
Compound: COC(=O)[C@H](CCC(=O)C=[N+]=[N-])NC(=O)OC(OC(=O)C(C)(C)C)C(C)C (stereo partly drawn)

Compound: [N-]=[N+]=CC(=O)CC[C@H](N)C(=O)O [6-DIAZO-5-OXO-L-NORLEUCINE]
- Cmax [15]: 2200 nM
- Cmax [16]: 12600 nM
- Activity [17]: 12%
- Activity [18]: 504 mm3
- inhibition [19]: Active
- AUC(0-t) [20]: 1.25 µM·h
- Activity [21]: Toxic
- Activity [22]: Toxic
- Drug uptake [23]: 0.33 nmol/g
- Activity [24]: 364 mm3
- Activity [25]: Toxic
- inhibition in vivo at 0.8 mg/kg [26]: > 50%
- AUC(0-t) [27]: 42.7 µM·h
- Activity [28]: 256 mm3
- Tmax [29]: 10.2 min
- Activity [30]: 251 mm3
- Kp [31]: 0.46
- Cmax [32]: 0.56 nmol/g

- remaining at 1 h, 10 µM [2]: 0%
- remaining at 1 h, 10 µM [1]: > 90%
- remaining at 1 h, 10 µM [3]: 0%
- remaining at 1 h, 10 µM [4]: 0%
Compound: Cc1oc(=O)oc1COC(=O)N[C@@H](CCC(=O)C=[N+]=[N-])C(=O)OC(C)C

- remaining at 1 h, 10 µM [2]: 75%
- remaining at 1 h, 10 µM [1]: > 90%
- remaining at 1 h, 10 µM [3]: 88%
- remaining at 1 h, 10 µM [4]: 0%
Compound: CCC(OC(=O)N[C@@H](CCC(=O)C=[N+]=[N-])C(=O)OC)OC(=O)C(C)(C)C (stereo partly drawn)

Compound: CCOC(=O)[C@H](CCC(=O)C=[N+]=[N-])NC(=O)[C@@H](N)CC(C)C
- remaining at 1 h, 10 µM [2]: 1%
- remaining at 1 h, 10 µM [1]: > 90%
- remaining at 1 h, 10 µM [3]: 1%
- remaining at 1 h, 10 µM [4]: 0%

From ChEMBL document CHEMBL3856236, “Discovery of 6-Diazo-5-oxo-l-norleucine (DON) Prodrugs with Enhanced CSF Delivery in Monkeys: A Potential Treatment for Glioblastoma” (J Med Chem, 2016)
